# Experimental data: patent publication US11753635B2, “Methods and systems and related compositions for mixtures separation with a solid matrix” (CALIFORNIA INSTITUTE OF TECHNOLOGY, priority 2017, dated 2023)
# Assays:
# [1] = cited from earlier work
# [2] = tested on: LAMP reaction on lambda phage DNA; test: LAMP with contaminants (Example 4); format: biochemical; settings: 10% additive (1 uL in 10 uL reaction)
# Protocol: LAMP reactions were carried out using standard conditions provided by NEB with slight modifications. LAMP solutions were provided by NEB unless otherwise noted. The final solution contained 1× Isothermal Amplification Buffer I, 1.4 mM dNTPs, 7 mM MgSO4 (5 mM+2 mM in buffer), WarmStart Bst 2.0 (320 U/mL), 1 mg/mL BSA (Ambion) Lambda phage LAMP primers (standard desalted, Integrated DNA Technologies) at concentrations 0.2 uM F3/B3, 1.6 uM FIP/BIP, 0.4 uM LoopF/B as previously developed by Goto in 2009 were used. Reactions were made to a total of 10 uL comprised of 5 uL concentrated reaction mix and 5 uL of purified nucleic acids from the various extraction conditions (NF—H2O for negative control). For positive controls, 5 uL purified lambda phage DNA ([…]) was added to each reaction and for 5 uL template from nucleic acid extractions or each sample was tested in triplicate (n=3) and solutions were made to either 9 uL or 10 uL. The LAMP reaction was carried out by heating to 68° C. and all of the wells were tracked in real-time (image every 35 s) on the BioRad CFX-96 system. Samples were deemed negative if they […] over 30 min. Cycle times were determined automatically using the BioRad analysis software and converted to time-to-positive in minutes. […]
compound,measurement,setting,value
CCCCCCCCCCCCCO [1 tridecanol],Water solubility at 25° C. (in words),[1]; explained as a solubility of 1 g per 10 L of solvent,practically insoluble (a
CCCCC(O)CCCC [5-nonanol],Water solubility at 25° C.,[1],0.046 g/100 mL
CCCCCO [1 pentanol],Water solubility at 25° C.,[1],2.2 g/100 mL
"CCCCCCCCCCCCCCCCCCCCO [Arachidyl Alcohol (20 ol), Arachidyl Alcohol]",Water solubility at 25° C.,[1],0.151 ug/100 mL
"CCO [ethanol, reference compound]",Inhibition of the LAMP reaction,[2]; no amplification for at least 30 min,completely inhibits the LAMP reaction
CCCCCCCCO [1-octanol],Delay in LAMP (time-to-positive),[2]; versus 10 uL positive control,1.4 min
same,Water solubility at 25° C.,[1],0.03 g/100 mL
